Earlier results, collected in patent publication US20160101114A1, “ARTICLES AND METHODS FOR PREVENTING AND TREATING DERMATOLOGIC ADVERSE EVENTS” (SLOAN-KETTERING INSTITUTE FOR CANCER RESEARCH, priority 2013, published 2016).

Details: cancer therapies with multikinase inhibitors

Going from `CNC(=O)c1ccccc1Sc1ccc2c(/C=C/c3ccccn3)n[nH]c2c1` [axitinib] to `COc1cc2nccc(Oc3ccc(NC(=O)C4(C(=O)Nc5ccc(F)cc5)CC4)cc3)c2cc1OC` [cabozantinib], the “all grade incidence of hand foot syndrome” value (“all grade incidence” below) rises from 29% to 50%.

First: Cc1ccc(Nc2nccc(N(C)c3ccc4c(C)n(C)nc4c3)n2)cc1S(N)(=O)=O [pazopanib]
Second: CNC(=O)c1cc(Oc2ccc(NC(=O)Nc3ccc(Cl)c(C(F)(F)F)c3)c(F)c2)ccn1 [regorafenib]
The “all grade incidence” value of the first is lower: 5% for the first, 46% for the second.

First: CNC(=O)c1cc(Oc2ccc(NC(=O)Nc3ccc(Cl)c(C(F)(F)F)c3)cc2)ccn1 [sorafenib]
Second: CCN(CC)CCNC(=O)c1c(C)[nH]c(/C=C2\C(=O)Nc3ccc(F)cc32)c1C [sunitinib]
The “all grade incidence” value of the first is higher: 60% for the first, 30% for the second.

First: COc1cc2c(Nc3ccc(Br)cc3F)ncnc2cc1OCC1CCN(C)CC1 [vandetanib]
Second: ziv-aflibercept
The “all grade incidence” value of the first is higher: 5% for the first, 2% for the second.
